Test results: patent publication US7932270B2 (Cytokinetics, Inc., priority 2006, dated 2011)

Biological target: T1, chicken gizzard smooth muscle myosin subfragment-1 chemically crosslinked to cardiac or skeletal actin (Gallus gallus, UniProt P10587)
T1 construct: chicken gizzard smooth muscle myosin subfragment-1; from tissue; host or cells: chicken gizzard
Test: Smooth muscle myosin ATPase dose response assay (pyruvate kinase/horseradish peroxidase/pyruvate oxidase-coupled, amplex red fluorescence)
Assay type: biochemical
Details: read-out: IC50 Arithmetic Mean
Description: In Vitro Model of Dose Dependent Smooth Muscle Myosin ATPase Modulation
Screening assays were performed using a pyruvate kinase and lactate dehydrogenase-coupled ATPase assay containing the following reagents: Potassium PIPES (50 mM), MgCl2 (3 mM), KCl (100 mM), ATP (0.15 mM), DTT (1 mM), BSA (0.1 mg/ml), NADH (0.5 mM), PEP (1.5 mM), pyruvate kinase (4 U/ml), lactate dehydrogenase (8 U/ml), and antifoam (50 ppm) (concentrations expressed are final assay concentrations). The pH was adjusted to 6.80 at 22° C. by addition of potassium hydroxide. Lead optimization assays were performed with a more sensitive pyruvate kinase/horseradish peroxidase/pyruvate oxidase-coupled ATPase assay containing the following reagents: Potassium PIPES (12 mM), MgCl2 (2 mM), KCl (100 mM), ATP (0.15 mM), BSA (0.05 mg/ml), potassium phosphate (2 mM), amplex red (0.1 mM), PEP (0.1 mM), pyruvate kinase (4 U/ml), horseradish peroxidase (0.5 U/ml), pyruvate oxidase (0.5 U/ml), and antifoam (50 ppm) (concentrations expressed are final assay concentrations). The pH was adjusted to 7.00 at 22° C. by addition of potassium hydroxide.
The protein components specific to this assay are chicken gizzard smooth muscle myosin subfragment-1 that has been chemically crosslinked to either cardiac or skeletal actin using an excess of 1-Ethyl-3-[3-dimethylaminopropyl]carbodiimide hydrochloride and N-hydroxysuccinimide. The exact concentration of the crosslinked smooth muscle myosin in the assay is determined empirically, by titration to achieve a desired rate of ATP hydrolysis. The concentration varies between protein preparations due to variations in the fraction of active molecules in each preparation.
Compound dose response assays are performed by first preparing a dilution series of test compound, each with an assay mixture containing potassium PIPES, MgCl2, KCl, ATP, BSA, potassium phosphate, amplex red, PEP, crosslinked smooth muscle actomyosin (subfragment-1), antifoam, and water. The assay is started by adding an equal volume of solution containing potassium Pipes, MgCl2, KCl, BSA, potassium phosphate, pyruvate kinase, horseradish peroxidase, pyruvate oxidase, antifoam, and water. ATP hydrolysis is monitored by measuring the fluorescence of amplex red (excitation at 480 nm, emission at 615 nm). The resulting dose response curve is fit by the 4 parameter equation y=Bottom+((Top-Bottom)/(1+((IC50/X)^Hill))). The IC50 is defined as the concentration at which ATPase activity is midway between the top and bottom of the dose response curve.

T1 sequence (P02607 2-151): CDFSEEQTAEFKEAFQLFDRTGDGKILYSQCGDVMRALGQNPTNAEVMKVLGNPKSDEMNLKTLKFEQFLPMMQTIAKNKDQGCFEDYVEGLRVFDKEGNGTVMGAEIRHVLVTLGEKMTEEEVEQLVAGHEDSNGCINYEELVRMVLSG
T1 sequence (P10587 84-789): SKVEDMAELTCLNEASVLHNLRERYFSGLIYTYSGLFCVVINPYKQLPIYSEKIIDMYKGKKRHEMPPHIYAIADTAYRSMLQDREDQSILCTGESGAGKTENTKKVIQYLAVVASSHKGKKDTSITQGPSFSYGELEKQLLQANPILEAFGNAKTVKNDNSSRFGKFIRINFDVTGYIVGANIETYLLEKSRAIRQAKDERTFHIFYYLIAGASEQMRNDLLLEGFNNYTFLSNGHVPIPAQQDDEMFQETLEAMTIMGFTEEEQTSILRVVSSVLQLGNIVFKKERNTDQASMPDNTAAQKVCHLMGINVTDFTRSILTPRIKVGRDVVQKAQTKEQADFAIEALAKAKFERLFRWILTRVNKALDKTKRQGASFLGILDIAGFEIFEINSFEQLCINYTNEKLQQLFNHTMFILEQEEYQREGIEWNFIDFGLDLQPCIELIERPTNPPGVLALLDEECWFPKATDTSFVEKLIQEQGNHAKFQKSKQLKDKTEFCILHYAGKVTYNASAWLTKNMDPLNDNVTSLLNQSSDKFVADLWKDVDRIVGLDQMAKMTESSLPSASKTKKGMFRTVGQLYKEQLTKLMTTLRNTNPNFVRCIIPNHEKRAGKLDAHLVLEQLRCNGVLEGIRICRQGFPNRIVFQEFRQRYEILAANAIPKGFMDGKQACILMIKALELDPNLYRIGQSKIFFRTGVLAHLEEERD

SMILES	IC50 [nM]
CC(C)(CNC(=O)c1ccc(-c2ccccc2C#N)nc1NCCc1cccc(F)c1)NC(=O)CNC(=O)OC(C)(C)C	9570
CC(C)(CNC(=O)c1ccc(-c2ccccc2C#N)nc1NCCc1cccc(F)c1)NC(=O)CN	320
CC(C)(CNC(=O)c1ccc(-c2ccccc2C#N)nc1NCCc1cccc(F)c1)NC(=O)CCCNC(=O)OC(C)(C)C	194
CC(C)(CNC(=O)c1ccc(-c2ccccc2C#N)nc1NCCc1cccc(F)c1)NC(=O)CCCN	277
N#Cc1ccccc1-c1ccc(C(=O)NCCCN2C(=O)CC[C@@H]2CN=[N+]=[N-])c(NCCc2cccc(F)c2)n1	5620
N#Cc1ccccc1-c1ccc(C(=O)NCCCN2C(=O)CC[C@H]2CN=[N+]=[N-])c(NCCc2cccc(F)c2)n1	16600
CN(C)C(n1cc(-c2ccc(C(=O)NC[C@H]3CCC(=O)N3CCCN)c(NCCc3cccc(F)c3)n2)cn1)=[N+](C)C	2130
N#Cc1ccccc1-c1ccc(C(=O)NCC2CCCN2CCCN)c(NCCc2cccc(F)c2)n1 (centres unmarked)	3500
C[C@@H](NC(=O)c1ccc(-c2ccccc2C#N)nc1NCCc1cccc(F)c1)C(N)=O	532
C[C@H](CNC(=O)c1cc(F)c(-c2cn[nH]c2)nc1NCC(O)c1cccc(F)c1)NC(=O)CNC(=O)OC(C)(C)C (some centres unmarked)	14200
C[C@H](CNC(=O)c1cc(F)c(-c2cnn(C)c2)nc1NCCc1cccc(F)c1)NC(=O)CNC(=O)OC(C)(C)C	1750
C[C@H](CNC(=O)c1cc(F)c(-c2cnn(C)c2)nc1NCCc1cccc(F)c1)NC(=O)CCCNC(=O)OC(C)(C)C	100
C[C@H](CNC(=O)c1cc(F)c(-c2cnn(C)c2)nc1NCCc1cccc(F)c1)NC(=O)CN(C)C	121
C[C@H](CNC(=O)c1cc(F)c(-c2cnn(C)c2)nc1NCCc1cccc(F)c1)NC(=O)CCCN	116
C[C@H](CNC(=O)c1cc(F)c(-c2cnn(C)c2)nc1NCCc1cccc(F)c1)NC(=O)[C@@H](N)CO	115
C[C@H](CNC(=O)c1cc(F)c(-c2cnn(C)c2)nc1NCCc1cccc(F)c1)NC(=O)C(C)(C)N	285
C[C@H](CNC(=O)c1cc(F)c(-c2cnn(C)c2)nc1NCCc1cccc(F)c1)NC(=O)[C@H](C)N	131
CC(=O)N[C@H](C)CNC(=O)c1cc(F)c(-c2cnn(C)c2)nc1NCCc1cccc(F)c1	251
C[C@H](CNC(=O)c1cc(F)c(-c2cnn(C)c2)nc1NCCc1cccc(F)c1)NC(=O)CN	76

SMILES	IC50 [nM]
C[C@H](CNC(=O)c1cc(F)c(-c2cn[nH]c2)nc1NCCc1cccc(F)c1)NC(=O)CN	122
C[C@H](CNC(=O)c1cc(F)c(-c2cnn(C)c2)nc1NCCc1cccc(F)c1)NC(=O)[C@H](CO)NC(=O)OC(C)(C)C	2260
C[C@H](CNC(=O)c1cc(F)c(-c2cnn(C)c2)nc1NCCc1cccc(F)c1)NC(=O)CO	197
C[C@H](CNC(=O)c1cc(F)c(-c2cn[nH]c2)nc1NCCn1cccn1)NC(=O)CN	4640
C[C@H](CNC(=O)c1ccc(-c2ccccc2C#N)nc1NCCc1cccc(F)c1)NC(=O)CNC(=O)OC(C)(C)C	2310
C[C@H](CNC(=O)c1ccc(-c2ccccc2C#N)nc1NCCc1cccc(F)c1)N(C)C(=O)CCCNC(=O)OC(C)(C)C	3680
C[C@H](CNC(=O)c1ccc(-c2ccccc2C#N)nc1NCCc1cccc(F)c1)N(C)C(=O)CCCN	710
C[C@H](CNC(=O)c1ccc(-c2ccccc2C#N)nc1NCCc1cccc(F)c1)N(C)C(=O)CNC(=O)OC(C)(C)C	5920
C[C@H](CNC(=O)c1ccc(-c2ccccc2C#N)nc1NCCc1cccc(F)c1)NC(=O)CCCN	204
C[C@H](CNC(=O)c1ccc(-c2ccccc2C#N)nc1NCCc1cccc(F)c1)NC(=O)CN	41
C[C@H](CNC(=O)c1ccc(-c2ccccc2C#N)nc1NCCc1cccc(F)c1)NC(=O)CCCNC(=O)OC(C)(C)C	49
C[C@H](CNC(=O)c1ccc(-c2ccccc2C#N)nc1NCCc1cccc(F)c1)N(C)C(=O)CN	152
C[C@@H](CNC(=O)c1cc(F)c(-c2cnn(C)c2)nc1NCCc1cccc(F)c1)NC(=O)CN	1800
C[C@@H](CNC(=O)c1ccc(-c2ccccc2C#N)nc1NCCc1cccc(F)c1)N(C)C(=O)CCCN	6830
C[C@@H](CNC(=O)c1ccc(-c2ccccc2C#N)nc1NCCc1cccc(F)c1)NC(=O)CCCNC(=O)OC(C)(C)C	2020
C[C@@H](CNC(=O)c1ccc(-c2ccccc2C#N)nc1NCCc1cccc(F)c1)NC(=O)CN	1460
C[C@@H](CNC(=O)c1ccc(-c2ccccc2C#N)nc1NCCc1cccc(F)c1)N(C)C(=O)CN	3250
C[C@@H](CNC(=O)c1ccc(-c2ccccc2C#N)nc1NCCc1cccc(F)c1)NC(=O)CCN	3560
O=C(NCc1cccnc1Cl)c1ccc(-c2cn[nH]c2)nc1NCCc1cccc(F)c1	46

SMILES	IC50 [nM]
N#Cc1ccccc1-c1ccc(C(=O)NC[C@H]2CCCN2CCCN)c(NCCc2cccc(F)c2)n1	1390
N#Cc1ccccc1-c1ccc(C(=O)NC[C@H]2CCCN2C(=O)CCCN)c(NCCC2CCOCC2)n1	8770
N#Cc1ccccc1-c1ccc(C(=O)NC[C@H]2CCCN2C(=O)CCCN)c(NCCC2CCCCO2)n1 (some centres unmarked)	2040
C[N+]1(C)CCC[C@@H]1CNC(=O)c1ccc(-c2ccccc2C#N)nc1NCCc1cccc(F)c1	2050
N#Cc1ccccc1-c1ccc(C(=O)NC[C@H]2O[C@@H](O)[C@H](O)[C@@H](O)[C@@H]2O)c(NCCc2cccc(F)c2)n1	5540
CC(NC(=O)c1ccc(-c2ccccc2C#N)nc1NCCc1cccc(F)c1)C(N)=O (centres unmarked)	564
N#Cc1ccccc1CCNc1nc(-c2ccccc2)ccc1C(=O)NCc1cccnc1	260
O=C(NCc1cccnc1)c1ccc(-c2ccccc2)nc1NCCc1ccc2c(c1)OCO2	28300
Cn1cc(-c2ccc(C(=O)NCc3cccnc3)c(NCCc3cccc(F)c3)n2)cn1	40
[N-]=[N+]=NCc1cc(C(=O)NCc2cccnc2)c(NCCc2cccc(F)c2)nc1-c1ccccc1	428
CC(C)(C)OC(=O)NCc1cccc(CNC(=O)c2ccc(-c3ccccc3C#N)nc2NCCc2cccc(F)c2)n1	1190
CN1CC(=O)N[C@@H](CNC(=O)c2ccc(-c3ccccc3C#N)nc2NCCc2cccc(F)c2)C1 (stereo in doubt) [(6-(2-cyanophenyl)-2-{[2-(3-fluorophenyl)ethyl]amino}(3-pyridyl))-N-[(4-methyl-6-oxopiperazin-2-yl)methyl]carboxamide]	37
CS(=O)(=O)N1CC(=O)N[C@@H](CNC(=O)c2ccc(-c3ccccc3C#N)nc2NCCc2cccc(F)c2)C1 (stereo in doubt) [(6-(2-cyanophenyl)-2-{[2-(3-fluorophenyl)ethyl]amino}(3-pyridyl))-N-{[4-(methylsulfonyl)-6-oxopiperazin-2-yl]methyl}carboxamide]	2560
CC(C)(C)OC(=O)NCCN1CCC[C@H](NC(=O)c2ccc(-c3ccccc3C#N)nc2NCCc2cccc(F)c2)C1=O (stereo in doubt) [N-(1-{2-[(tert-butoxy)carbonylamino]ethyl}-2-oxo(3-piperidyl))(6-(2-cyanophenyl)-2-{[2-(3-fluorophenyl)ethyl]amino}(3-pyridyl))carboxamide]	15300
N#Cc1ccccc1-c1ccc(C(=O)N[C@H]2CCCN(CCN)C2=O)c(NCCc2cccc(F)c2)n1 (stereo in doubt) [N-[1-(2-aminoethyl)-2-oxo(3-piperidyl)](6-(2-cyanophenyl)-2-{[2-(3-fluorophenyl)ethyl]amino}(3-pyridyl))carboxamide]	18500
N#Cc1ccccc1-c1ccc(C(=O)NCCN2CCC[C@H](N)C2=O)c(NCCc2cccc(F)c2)n1 (stereo in doubt) [N-[2-(3-amino-2-oxopiperidyl)ethyl](6-(2-cyanophenyl)-2-{[2-(3-fluorophenyl)ethyl]amino}(3-pyridyl))carboxamide]	2950
CC(=O)N1CC(=O)N[C@@H](CNC(=O)c2ccc(-c3ccccc3C#N)nc2NCCc2cccc(F)c2)C1 (stereo in doubt) [N-[(4-acetyl-6-oxopiperazin-2-yl)methyl](6-(2-cyanophenyl)-2-{[2-(3-fluorophenyl)ethyl]amino}(3-pyridyl))carboxamide]	1630
OC(CNCc1ccccn1)c1ccc(-c2ccccc2)nc1NCCc1cccc(F)c1 (centres unmarked) [1-(2-{[2-(3-fluorophenyl)ethyl]amino}-6-phenyl(3-pyridyl))-2-[(2-pyridylmethyl)amino]ethan-1-ol]	19400
